Data on four compounds can be found in US7048907B2, “Synthesis, compositions and methods for the measurement of the concentration of stable-isotope labeled compounds in life forms and life form excretory products” (BioPhysics Assay Laboratory, Inc., priority 2001, dated 2006).

For data set [1] the following is noted: in vivo; cited from earlier work.
Data set [2] is described as follows: Assay of chelate on carboxymethyl (CM) Sephadex column (chelate formation, charge). The format is physicochemical. Conditions: for umol Gd: atomic absorption. The method, then:
Preparation of carboxymethyl sephadex column. To two 10 ml plastic pipets cut off at the 3 ml mark and plugged with glass wool at the bottom add enough slurry to form a 2 ml volume of the CM sephadex. Wash the packed resin with 6 ml of 1 M Tris buffer pH 7.5, and 6 ml of 0.01M Tris buffer pH 7.5. […] Collect the eluants of fractions as follows. Fraction 1.3 ml of 0.01 M Tris buffer pH 7.5 and allow to drain into column. Fraction 2.1 ml of sample (gadolinium-DTPA or gadolinium chloride) and allow to drain into column. Apply 3 ml of 0.01 M Tris buffer pH 7.5 and allow to drain into column. Fraction 3.3 ml of 0.01M Tris buffer pH 7.5 and allow to drain into column. Dry all fractions at 70° C. for 76 hours, dissolve in 1 ml of 1 mM HCl and assay by atomic absorption.
(§1) Preparation of carboxymethyl Sephadex column. To two 10 ml plastic pipets which had been cut off at the 3 ml mark and plugged with glass wool at the bottom, enough slurry was added to form a 2 ml volume of the CM Sephadex. The packed resin was wash with 6 ml of 1 M Tris buffer pH 7.5, and 6 ml of 0.01M Tris buffer pH 7.5. […] Fractions were applied as follows. Fraction 1. Three ml of 0.01 M Tris buffer pH 7.5 and allow to drain into column. Fraction 2. One ml of sample (samarium-DTPA or samarium chloride) and allow to drain into column. Apply 3 ml of 0.01 M Tris buffer pH 7.5 and allow to drain into column. Fraction 3. Three ml of 0.01M Tris buffer pH 7.5 and allow to drain into column. Collect the eluant of fractions 1 through 3. Fraction 4. Column and contents.
as §1, with “were” for “had been”, “washed” for “wash”, “(lanthanum-DTPA” for “(samarium-DTPA”, “lanthanum” for “samarium”
as §1, with “were” for “had been”, “washed” for “wash”, “(Europium-DTPA” for “(samarium-DTPA”, “Europium” for “samarium”
Preparation of carboxymethyl sephadex column. To a 10 ml plastic pipet cut off at the 3 ml mark and plugged with glass wool at the bottom, add enough slurry to form a 2 ml volume of the CM sephadex. Wash the packed resin with 6 ml of 1 M Tris buffer pH 7.5, and 6 ml of 0.01M Tris buffer pH 7.5. […] Apply fractions as follows. Fraction 1. One ml of sample A and allow to drain into column.

The conditions of data set [3]: demonstrated by properties of the marketed pharmaceutical product; cited from earlier work.
For data set [4] the following is noted: male, New Zealand White, rabbit, in vivo.
The nature of data set [5]: Stability of chelates in rat serum (CM-Sephadex assay, serum binding). Conditions: 24 hours in rat serum at room temperature.
Where [6] appears, read: Fraction 1: 3 ml 0.01M Tris pH 7.5 before sample.
The mark [7] stands for this setting: Fraction 2: 1 ml sample then 3 ml 0.01M Tris pH 7.5 (eluate).
The mark [8] stands for this setting: Fraction 3: further 3 ml 0.01M Tris pH 7.5.
Setting [9] is: Fraction 1: 0.2 ml sample then 2 ml 0.01M Tris pH 7.5 (eluate).
[10] abbreviates: Fraction 2: 3 ml 0.01M Tris pH 7.5.
Where [11] appears, read: Fraction 3: column and contents (retained).

Like-named read-outs stand apart in the source and are kept apart here.

For `O=C([O-])C(NCCNC(C(=O)[O-])c1ccccc1[O-])c1ccccc1[O-].[Fe+3]` (centres unmarked) [FE-EHPG], the uptake into liver in data set [1] was 6 % of an administered dose.

For `O=C([O-])CN1CCN(CC(=O)[O-])CCN(CC(=O)O)CCN(CC(=O)[O-])CC1.[Gd+3]` [Gd-DOTA, Gd-(1,4,7,10-tetraazacyclododecane-1,4,7,10-tetraacetic acid), reference compound], the “% eluted from the CM-Sephadex column” value in data set [2] is on record as 100%. The “% of total” value in data set [2] (DOTA chelates, Fraction 1: 1 ml sample diluted 1:10 then 3 ml 0.01M Tris pH 7.5 (eluate)) is 100 % of total; in data set [2] (DOTA chelates, Fraction 2: further 3 ml 0.01M Tris pH 7.5), 0 % of total. The entries for the “umol Gd” value in data set [2] (Fraction 1: 1 ml sample diluted 1:10 then 3 ml 0.01M Tris pH 7.5 (eluate)) and in data set [2] (Fraction 2: further 3 ml 0.01M Tris pH 7.5) were 0.1 µmol and 0 µmol, respectively. Further, in data set [2] (room temperature, Tris pH 7.5), the “time within which the chelate forms” value is at most 5 min. For the same compound, the “stability to autoclaving” value in data set [3] was “stable to autoclaving”.

In data set [4], `CC(=O)N(CC(O)CO)c1c(I)c(C(=O)NCC(O)CO)c(I)c(C(=O)NCC(O)CO)c1I` (centres unmarked) [Iohexol] registered a GFR of 4.8 mL/min/kg. Further, the serum concentration in data set [4] (5 min) came out at 124.4 µg/mL; in data set [4] (10 min), 109.4 µg/mL; in data set [4] (15 min), 86.6 µg/mL; in data set [4] (20 min), 88.85 µg/mL; in data set [4] (30 min) it was 67.69 µg/mL; in data set [4] (45 min), 47.02 µg/mL. The serum concentration in data set [4] (60 min) was determined as 48.94 µg/mL; in data set [4] (96 min), 31.74 µg/mL; in data set [4] (120 min) it was 23.65 µg/mL. For the same compound, the serum iodine signal is 5166.1 dpm/ul in data set [4] (5 min); 4541.7 dpm/ul in data set [4] (10 min); 3595.7 dpm/ul in data set [4] (15 min); 3689.4 dpm/ul in data set [4] (20 min); 2810.5 dpm/ul in data set [4] (30 min); 1952.3 dpm/ul in data set [4] (45 min). Besides, the serum iodine signal in data set [4] (60 min) was 2032.3 dpm/ul; in data set [4] (96 min) it was 1317.8 dpm/ul; in data set [4] (120 min), 982.0 dpm/ul.

For `[Cl][Sm]([Cl])[Cl]` [Samarium chloride, reference compound], the “% of unchelated ion retained on the column” value in data set [2] was 100%. Also, the “% of total” value is 0 % of total in data set [2] (setting [6]); 0 % of total in data set [2] (setting [7]); 0 % of total in data set [2] (setting [8]); 100 % of total in data set [2] (Fraction 4: column and contents (retained)); 48 % of total in data set [5] (setting [9]); 3 % of total in data set [5] (setting [10]). Further, the “% of total” value in data set [5] (setting [11]) is 49 % of total. The dpm in data set [2] (setting [6]) stood at 0 dpm; in data set [2] (setting [7]) it was 0 dpm; in data set [2] (setting [8]), 0 dpm; in data set [5] (setting [9]), 104992 dpm; in data set [5] (setting [10]), 5702 dpm; in data set [5] (setting [11]), 108299 dpm.
